Measured values as given in patent US20240228489A1, “POSITIVE ALLOSTERIC MODULATORS OF THE MUSCARINIC ACETYLCHOLINE RECEPTOR M1” (Vanderbilt University, priority 2021, published 2024).

Tests used:
human mAChR M1 [1] = molecular target: T1, human mAChR M1 (Homo sapiens, UniProt P11229); experiment: mAChR M1 cell-based functional assay (calcium mobilization), PAM mode: increase in the EC20 acetylcholine response
T1 sequence (P11229 1-460): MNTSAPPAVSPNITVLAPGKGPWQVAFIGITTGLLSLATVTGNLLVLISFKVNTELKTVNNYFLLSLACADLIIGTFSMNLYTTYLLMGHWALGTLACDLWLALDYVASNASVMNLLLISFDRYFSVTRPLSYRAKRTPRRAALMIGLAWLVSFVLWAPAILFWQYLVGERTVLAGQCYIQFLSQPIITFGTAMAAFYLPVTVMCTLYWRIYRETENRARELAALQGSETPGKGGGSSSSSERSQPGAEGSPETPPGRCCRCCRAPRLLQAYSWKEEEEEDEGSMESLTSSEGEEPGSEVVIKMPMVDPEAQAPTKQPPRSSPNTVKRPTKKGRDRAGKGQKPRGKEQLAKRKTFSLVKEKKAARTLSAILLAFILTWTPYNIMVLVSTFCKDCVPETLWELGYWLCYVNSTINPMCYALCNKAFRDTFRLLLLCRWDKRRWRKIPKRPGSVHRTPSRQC
Outline: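 CHO-K1 cells stably expressing hM1, Fluo-4 loaded, read by FDSS calcium flux at 1 Hz. Compound (11-point 1:3 CRC) added at 4 s, EC20 acetylcholine at 144 s, EC80 at 230 s. PAM activity taken as concentration-dependent increase in EC20 ACh response, fitted by four-parameter logistic for EC50/Emax.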

human mAChR M1 [2] = molecular target: T1, human mAChR M1; experiment: mAChR M1 cell-based functional assay (calcium mobilization), agonist mode: compound alone, Emax relative to acetylcholine maximum; conditions: for Emax: relative to the maximum for acetylcholine
Outline: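 CHO-K1 cells stably expressing hM1 were loaded with Fluo-4 AM, and calcium flux was read as fluorescence ratio. Compound was added alone from an 11-point 1:3 curve, and the agonist response was fitted with a four-parameter logistic. Emax is expressed relative to the acetylcholine maximum.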

EC50 (human mAChR M1 [1]) [nM] | Emax (human mAChR M1 [1]) [%] | EC50 (human mAChR M1 [2]; human mAChR M1) [µM] | Emax (human mAChR M1 [2]) [%] | Agonist Activity Human M1 EC50 (human mAChR M1 [2]; human mAChR M1) | Structure (SMILES)
413 | 78 | > 10 | 28 | – | [2H]C1([2H])c2ncccc2C(=O)N1Cc1c(F)cc(-c2cccc3nn(CF)cc23)cc1F [Compound 44, 6-(2,6-difluoro-4-(2-(fluoromethyl)-2H-indazol-4-yl)benzyl)-6,7-dihydro-5H-pyrrolo[3,4-b]pyridin-5-one-7,7-d2]
681 | 77 | – | 9 | Inactive | [2H]C1([2H])c2ncccc2C(=O)N1Cc1ccc(-c2cccc3nn(C([2H])([2H])[2H])cc23)cc1C [Compound 46, 6-(2-methyl-4-(2-(methyl-d^3)-2H-indazol-4-yl)benzyl)-6,7-dihydro-5H-pyrrolo[3,4-b]pyridin-5-one-7,7-d2]
> 10000 | 25 | – | 2 | Inactive | [2H]C1([2H])c2ncccc2C(=O)N1Cc1c(F)cc(-c2cc(Cl)cc3c2cnn3C([2H])([2H])[2H])cc1F [Compound 246, 6-(4-(6-chloro-1-(methyl-d3)-1H-indazol-4-yl)-2,6-difluorobenzyl)-6,7-dihydro-5H-pyrrolo[3,4-b]pyridin-5-one-7,7-d2]
806 | 73 | – | 7 | Inactive | [2H]C1([2H])c2ncccc2C(=O)N1Cc1c(F)cc(-c2cccc3nn(C)cc23)cc1OC [Compound 231, 6-(2-fluoro-6-methoxy-4-(2-methyl-2H-indazol-4-yl)benzyl)-6,7-dihydro-5H-pyrrolo[3,4-b]pyridin-5-one-7,7-d2]
512 | 87 | – | 5 | Inactive | [2H]C1([2H])c2ncccc2C(=O)N1Cc1c(F)cc(-c2ccc(OC3CN(CCCC)C3)c3nn(C)cc23)cc1F [Compound 184, 6-(4-(7-((1-butylazetidin-3-yl)oxy)-2-methyl-2H-indazol-4-yl)-2,6-difluorobenzyl)-6,7-dihydro-5H-pyrrolo[3,4-b]pyridin-5-one-7,7-d2]
435 | 81 | – | 2 | Inactive | [2H]C1([2H])c2ncccc2C(=O)N1Cc1c(F)cc(-c2ccc(C)c3nn(C)cc23)cc1Cl [Compound 162, 6-(2-chloro-4-(2,7-dimethyl-2H-indazol-4-yl)-6-fluorobenzyl)-6,7-dihydro-5H-pyrrolo[3,4-b]pyridin-5-one-7,7-d2]
332 | 85 | – | 4 | Inactive | [2H]C1([2H])c2ncccc2C(=O)N1Cc1c(F)cc(-c2cccc3nn(C(F)F)cc23)cc1F [Compound 50, 6-(4-(2-(difluoromethyl)-2H-indazol-4-yl)-2,6-difluorobenzyl)-6,7-dihydro-5H-pyrrolo[3,4-b]pyridin-5-one-7,7-d2]
1120 | 55 | – | 1 | Inactive | [2H]C1([2H])c2ncccc2C(=O)N1Cc1c(F)cc(-c2ccc(OCC3CN(C(=O)OC(C)(C)C)C3)c3nn(C)cc23)cc1F [Compound 179, tert-butyl 3-(((4-(3,5-difluoro-4-((5-oxo-5,7-dihydro-6H-pyrrolo[3,4-b]pyridin-6-yl-7,7-d2)methyl)phenyl)-2-methyl-2H-indazol-7-yl)oxy)methyl)azetidine-1-carboxylate]
297 | 85 | – | 9 | Inactive | [2H]C1([2H])c2ncccc2C(=O)N1Cc1c(F)cc(-c2ccc(OC3CN(C(C)C)C3)c3nn(C)cc23)cc1F [Compound 180, 6-(2,6-difluoro-4-(7-((1-isopropylazetidin-3-yl)oxy)-2-methyl-2H-indazol-4-yl)benzyl)-6,7-dihydro-5H-pyrrolo[3,4-b]pyridin-5-one-7,7-d2]
